Broadly, the inhibition is the share of the control response that was lost under treatment.

The target of this assay is T1, recombinant human cGAS enzyme (hcGAS-ΔN, residues 147–522) (Homo sapiens, UniProt Q8N884).
T1 construct: N-terminally truncated human cGAS (hcGAS-ΔN, residues 147–522); 6xHis-SUMO (N, cleaved yes); made in house; host or cells: Escherichia coli BL21 (DE3)
Put plainly: RNA-based fluorescent biosensor assay of cGAS activity (2',3'-cGAMP formation), in vitro screening. It counts as biochemical. The settings on record: for inhibition at 20 µM / Inhibition %: peptides screened at 20 μM, Supplementary Table 1 / Fig. S5b; for inhibition at 20 µM: read-out: Inhibition %. In outline: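 In 40 mM Tris-HCl pH 7.5, 100 mM NaCl, 10 mM MgCl2, ISD (0.5 μM) started the reaction with hcGAS-ΔN (1.5 μM), ATP (1 mM) and GTP (1 mM). Incubation was 2 h at 37 °C, with compounds screened at 20 μM. 2',3'-cGAMP formed was quantified with an RNA-based fluorescent biosensor.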

Values joined by “and” are separate entries in the source; they are usually repeats but may differ in a detail not shown here. Equal entries are not always repeated. Square brackets hold non-standard residues; d marks the D form. Peptide text beside a SMILES is read from it.

T1 sequence (Q8N884 147-522, stated change not applied): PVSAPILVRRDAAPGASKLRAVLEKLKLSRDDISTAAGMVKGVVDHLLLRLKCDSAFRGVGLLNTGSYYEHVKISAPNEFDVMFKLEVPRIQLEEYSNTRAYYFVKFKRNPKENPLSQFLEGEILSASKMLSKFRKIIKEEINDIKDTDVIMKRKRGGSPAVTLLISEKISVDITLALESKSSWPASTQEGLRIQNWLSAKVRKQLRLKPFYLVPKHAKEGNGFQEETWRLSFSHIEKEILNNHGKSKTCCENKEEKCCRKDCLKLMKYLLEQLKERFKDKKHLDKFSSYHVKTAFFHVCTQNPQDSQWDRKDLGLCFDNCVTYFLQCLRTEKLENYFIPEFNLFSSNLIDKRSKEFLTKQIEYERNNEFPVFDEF

Take `CC(C)C[C@@H]1NC(=O)[C@H](C)NC(=O)[C@H](C(C)C)NC(=O)[C@@H]2CCCN2C(=O)[C@@H](CCCNC(=N)N)NC(=O)[C@H](CC(C)C)NC(=O)[C@H](CCCNC(=N)N)NC(=O)[C@H](C(C)C)NC(=O)[C@@H]2CCCN2C(=O)[C@@H](Cc2ccccc2)NC1=O` [XQ55, Cyclo (LrPVALfPVR)] (cyclo(AL[dF]PVRL[dR]PV)): the inhibition at 20 µM is 0%.

For `CC(C)C[C@@H]1NC(=O)[C@H](C)NC(=O)[C@H](C(C)C)NC(=O)[C@@H]2CCCN2C(=O)[C@@H](Cc2ccccc2)NC(=O)[C@H](CC(C)C)NC(=O)[C@H](CCCNC(=N)N)NC(=O)[C@H](C(C)C)NC(=O)[C@@H]2CCCN2C(=O)[C@@H](CCCNC(=N)N)NC1=O` [XQ56, Cyclo (LrPVRLfPVA)] (cyclo(AL[dR]PVRL[dF]PV)), the inhibition at 20 µM is 0%.

Regarding `CC(C)C[C@@H]1NC(=O)[C@H](CCCNC(=N)N)NC(=O)[C@H](C(C)C)NC(=O)[C@H](C)NC(=O)[C@@H](Cc2ccccc2)NC(=O)[C@H](C)NC(=O)[C@H](CC(=O)O)NC(=O)[C@H](C(C)C)NC(=O)[C@@H]2CCCN2C(=O)[C@@H](Cc2ccccc2)NC1=O` [XQ57, Cyclo (LfPVDAfAVR)] (cyclo(AVRL[dF]PVDA[dF])), the inhibition at 20 µM was 0%.

In the case of `CC(C)C[C@@H]1NC(=O)[C@H](CC(=O)O)NC(=O)[C@H](C(C)C)NC(=O)[C@@H]2CCCN2C(=O)[C@@H](Cc2ccccc2)NC(=O)[C@H](C)NC(=O)[C@H](CCCNC(=N)N)NC(=O)[C@H](C)NC(=O)[C@@H]2CCCN2C(=O)[C@@H](Cc2ccccc2)NC1=O` [XQ58, Cyclo (AfPVDLfPAR)] (cyclo(ARA[dF]PVDL[dF]P)), the inhibition at 20 µM is 0%.

Consider `CC(C)C[C@@H]1NC(=O)[C@H](CC(=O)O)NC(=O)[C@H]([C@@H](C)O)NC(=O)[C@@H]2CCCN2C(=O)[C@@H](Cc2ccccc2)NC(=O)[C@H](CC(C)C)NC(=O)[C@H](CCCNC(=N)N)NC(=O)[C@H]([C@@H](C)O)NC(=O)[C@H](C)NC(=O)[C@@H](Cc2ccccc2)NC1=O` [XQ59, Cyclo (LfPTDLfATR)] (cyclo(ATRL[dF]PTDL[dF])), for which the inhibition at 20 µM was 0%.

For the molecule `CC(C)C[C@@H]1NC(=O)[C@H](CC(=O)O)NC(=O)[C@H](C(C)C)NC(=O)[C@@H]2CCCN2C(=O)[C@@H](Cc2ccccc2)NC(=O)[C@H](CC(C)C)NC(=O)[C@H](CCCNC(=N)N)NC(=O)[C@H](C(C)C)NC(=O)[C@@H]2CCCN2C(=O)[C@@H](Cc2ccccc2)NC1=O` [XQ60, Cyclo (LfPVDLfPVR)] (cyclo(DL[dF]PVRL[dF]PV)), the inhibition at 20 µM was 0%.

As for `CC(C)C[C@@H]1NC(=O)[C@H](CCCNC(=N)N)NC(=O)[C@H](C(C)C)NC(=O)[C@@H]2CCCN2C(=O)[C@@H](Cc2ccccc2)NC(=O)[C@H](CC(C)C)NC(=O)[C@H]([C@@H](C)O)NC(=O)[C@@H]2CCCN2C(=O)[C@@H](Cc2ccccc2)NC(=O)[C@H](CC(=O)O)NC1=O` [XQ63, Cyclo (LDfPTLfPVR)] (cyclo(D[dF]PTL[dF]PVRL)), the inhibition at 20 µM was 0%.

On to `CC(C)C[C@@H]1NC(=O)[C@H](CC(=O)O)NC(=O)[C@H](CCCNC(=N)N)NC(=O)[C@H](C(C)C)NC(=O)[C@@H]2CCCN2C(=O)[C@@H](Cc2ccccc2)NC(=O)[C@H](CC(C)C)NC(=O)[C@H]([C@@H](C)O)NC(=O)[C@@H]2CCCN2C(=O)[C@@H](Cc2ccccc2)NC1=O` [XQ64, Cyclo (DLfPTLfPVR)] (cyclo(DL[dF]PTL[dF]PVR)), for which the inhibition at 20 µM came out at 0%.

With `CC(C)C[C@@H]1NC(=O)[C@H](CCCNC(=N)N)NC(=O)[C@H](CC(=O)O)NC(=O)[C@H](C(C)C)NC(=O)[C@@H]2CCCN2C(=O)[C@@H](Cc2ccccc2)NC(=O)[C@H](CC(C)C)NC(=O)[C@H]([C@@H](C)O)NC(=O)[C@@H]2CCCN2C(=O)[C@@H](Cc2ccccc2)NC1=O` [XQ65, Cyclo (LfPTLfPVDR)] (cyclo(DRL[dF]PTL[dF]PV)), the inhibition at 20 µM was found to be 0%.

Consider `CC(C)C[C@@H]1NC(=O)[C@H](CCCNC(=N)N)NC(=O)[C@H](C(C)C)NC(=O)[C@H](CC(=O)O)NC(=O)[C@@H]2CCCN2C(=O)[C@@H](Cc2ccccc2)NC(=O)[C@H](CC(C)C)NC(=O)[C@H]([C@@H](C)O)NC(=O)[C@@H]2CCCN2C(=O)[C@@H](Cc2ccccc2)NC1=O` [XQ66, Cyclo (LfPTLfPDVR)] (cyclo(DVRL[dF]PTL[dF]P)), for which the inhibition at 20 µM was 0%.

With `CC(C)C[C@@H]1NC(=O)[C@H](CCCNC(=N)N)NC(=O)[C@H](C(C)C)NC(=O)[C@@H]2CCCN2C(=O)[C@@H](Cc2ccccc2)NC(=O)[C@H](Cc2c[nH]cn2)NC(=O)[C@H](CC(=O)O)NC(=O)[C@H]([C@@H](C)O)NC(=O)[C@@H]2CCCN2C(=O)[C@@H](Cc2ccccc2)NC1=O` [XQ67, Cyclo (LfPTDHfPVR)] (cyclo(DH[dF]PVRL[dF]PT)), the inhibition at 20 µM was 0%.

Take `CC(C)C[C@@H]1NC(=O)[C@H](CCCNC(=N)N)NC(=O)[C@H](C(C)C)NC(=O)[C@@H]2CCCN2C(=O)[C@@H](Cc2ccccc2)NC(=O)[C@H](CC(C)C)NC(=O)[C@H](CC(=O)O)NC(=O)[C@H](CCC(N)=O)NC(=O)[C@@H]2CCCN2C(=O)[C@@H](Cc2ccccc2)NC1=O` [XQ68, Cyclo (LfPQDLfPVR)] (cyclo(DL[dF]PVRL[dF]PQ)): the inhibition at 20 µM is 0%.

Take `CC(C)C[C@@H]1NC(=O)[C@H](CCCNC(=N)N)NC(=O)[C@H](C(C)C)NC(=O)[C@@H]2CCCN2C(=O)[C@@H](Cc2ccccc2)NC(=O)[C@H](CC(C)C)NC(=O)[C@H](CC(=O)O)NC(=O)[C@H](C(C)C)NC(=O)[C@H](CCCNC(=N)N)NC(=O)[C@@H](Cc2ccccc2)NC1=O` [XQ76, Cyclo (LfRVDLfPVR)] (cyclo(DL[dF]PVRL[dF]RV)): the inhibition at 20 µM was 0%.

Turning to `CC(C)C[C@@H]1NC(=O)[C@H](C)NC(=O)[C@H](C(C)C)NC(=O)[C@H](CCCNC(=N)N)NC(=O)[C@@H](Cc2ccccc2)NC(=O)[C@H](CC(C)C)NC(=O)[C@H](CC(=O)O)NC(=O)[C@H](C(C)C)NC(=O)[C@@H]2CCCN2C(=O)[C@@H](Cc2ccccc2)NC1=O` [XQ77, Cyclo (LfPVDLfRVA)] (cyclo(AL[dF]PVDL[dF]RV)), the inhibition at 20 µM amounted to 10%.

Turning to `CC(C)C[C@@H]1NC(=O)[C@H](CC(=O)O)NC(=O)[C@H](C(C)C)NC(=O)[C@@H]2CCCN2C(=O)[C@@H](C)NC(=O)[C@H](C)NC(=O)[C@H](CCCNC(=N)N)NC(=O)[C@H](C(C)C)NC(=O)[C@@H]2CCCN2C(=O)[C@@H](Cc2ccccc2)NC1=O` [XQ78, Cyclo (AaPVDLfPVR)] (cyclo(A[dA]PVDL[dF]PVR)), the inhibition at 20 µM was 0%.

Consider `CC(C)C[C@@H]1NC(=O)[C@H](CCCNC(=N)N)NC(=O)[C@H]([C@@H](C)O)NC(=O)[C@@H]2CCCN2C(=O)[C@@H](Cc2ccccc2)NC(=O)[C@H](C)NC(=O)[C@H](CC(=O)O)NC(=O)[C@H](C)NC(=O)[C@@H]2CCCN2C(=O)[C@@H](Cc2ccccc2)NC1=O` [XQ79, Cyclo (LfPADAfPTR)] (cyclo(ADA[dF]PTRL[dF]P)), for which the inhibition at 20 µM worked out at 0%.

`CCN(CC)CCCC(C)Nc1c2ccc(Cl)cc2nc2ccc(OC)cc12` (stereo not drawn) [quinacrine, reference compound]: the “cGAS activity in the biosensor assay” value is recorded as “inhibited the activity of cGAS in a dose-dependent manner”.

On to Cyclo ((hex)DLfPVR(hex)) [XQ69], for which the Inhibition % came out at 0%.

In the case of Cyclo (Aa(Hyp)TDLfPTR) [XQ85], the Inhibition % was 0%.

In the case of Cyclo (AaRTDLfPVR) [XQ89], the Inhibition % is 0%.

Consider Cyclo (AaRVDLfPVR) [XQ87], for which the Inhibition % was found to be 0%.

As for Cyclo (LaP(T(Bzl))RLaPTR) [XQ41], the Inhibition % was determined as 0%. Moreover, the “Remaining activity (%), Fig. 1a source data” value (20 μM, replicate values) was 101.101% and 103.439% and 102.283%.

Cyclo (Lf(Hyp)TDAfPTR) [XQ86]: the Inhibition % was 0%.

On to Cyclo (Lf(Hyp)TDAfPVR) [XQ88], for which the Inhibition % is 7%.

In the case of Cyclo (LfPTDAfPVR) [XQ84], the Inhibition % is 0%.

Cyclo (LfPTDLf(K(Alloc))VR) [XQ72]: the Inhibition % is listed as 0%.

With Cyclo (LfPTDLf(Orn(Dde))VR) [XQ70], the Inhibition % was determined as 0%.

Turning to Cyclo (LfPTDLfPVR) [XQ90], the Inhibition % worked out at 5%.

As for Cyclo (LfPVDAfPVR) [XQ81], the Inhibition % was 0%.

Consider Cyclo (LfRADAfPTR) [XQ80], for which the Inhibition % is recorded as 0%.

Regarding Cyclo (LfRADAfPVR) [XQ83], the Inhibition % worked out at 0%.

Take Cyclo (LfRVDAfPVR) [XQ82]: the Inhibition % is on record as 0%.

With Cyclo (Lw(K(Dde))VDLf(K(Dde))VR) [XQ71], the Inhibition % is 0%.

For Cyclo (LwP(T(NMe))DLf(K(Dde))VR) [XQ61], the Inhibition % was 16%.

As for Cyclo (LwPTD(Nle)f(K(Dde))VR) [XQ73], the Inhibition % was found to be 0%.

Cyclo (LwPTDLf(K(Dde))(V(NMe))R) [XQ62]: the Inhibition % is given as 0%.

For the molecule Cyclo (LwPVD(Nle)f(K(Dde))IR) [XQ75], the Inhibition % is 0%.

Cyclo (LwPVDLf(K(Dde))VR) [XQ74]: the Inhibition % is 0%.

These data come from article PMC10545747, “Development of cyclopeptide inhibitors of cGAS targeting protein-DNA interaction and phase separation” (Nature Communications, 2023).
